This is an account of results in US9290451B2 (Hoffmann-La Roche Inc., priority 2011, dated 2016).

Test [1] addresses human CB1 receptors (Homo sapiens (Human), UniProt P21554). Briefly: cAMP assay, CHO cells expressing human CB1 receptors. The conditions noted are these: CHO cells expressing human CB1, cAMP; read-out: human CB1 EC50. It counts as cell-based. In short, it runs like this:
(§1)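 Whole CHO cells were preincubated in Krebs Ringer bicarbonate buffer with 1 mM IBMX for 30 min at 30 °C, then exposed to compounds for 30 min at 30 °C. cAMP was quantified by time-resolved FRET (cAMP-Nano-TRF) against a standard curve, and EC50 values were derived.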

Test [2] deals with human CB2 receptors (Homo sapiens (Human), UniProt P34972). The experiment in a line: cAMP assay, CHO cells expressing human CB2 receptors. The conditions noted are these: CHO cells expressing human CB2, cAMP; read-out: human CB2 EC50. Format: cell-based. In short, it runs like this:
as §1
For orientation: Changes in cAMP serve as a functional read-out for many G protein-coupled receptors.

Chain of human CB1 receptors (P21554 whole entry): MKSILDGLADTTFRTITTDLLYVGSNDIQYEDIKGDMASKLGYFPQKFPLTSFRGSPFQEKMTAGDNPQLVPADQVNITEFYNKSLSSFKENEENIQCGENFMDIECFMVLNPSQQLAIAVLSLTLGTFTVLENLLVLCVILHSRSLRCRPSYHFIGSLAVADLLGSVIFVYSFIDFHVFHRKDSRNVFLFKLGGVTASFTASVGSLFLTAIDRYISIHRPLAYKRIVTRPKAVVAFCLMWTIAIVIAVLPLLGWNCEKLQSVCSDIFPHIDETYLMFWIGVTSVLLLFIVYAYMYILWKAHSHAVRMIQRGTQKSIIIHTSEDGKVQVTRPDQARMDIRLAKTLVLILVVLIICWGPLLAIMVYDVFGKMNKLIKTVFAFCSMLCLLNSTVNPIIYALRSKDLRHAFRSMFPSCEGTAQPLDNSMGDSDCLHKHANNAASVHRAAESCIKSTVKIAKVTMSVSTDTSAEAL
Chain of human CB2 receptors (P34972 whole entry): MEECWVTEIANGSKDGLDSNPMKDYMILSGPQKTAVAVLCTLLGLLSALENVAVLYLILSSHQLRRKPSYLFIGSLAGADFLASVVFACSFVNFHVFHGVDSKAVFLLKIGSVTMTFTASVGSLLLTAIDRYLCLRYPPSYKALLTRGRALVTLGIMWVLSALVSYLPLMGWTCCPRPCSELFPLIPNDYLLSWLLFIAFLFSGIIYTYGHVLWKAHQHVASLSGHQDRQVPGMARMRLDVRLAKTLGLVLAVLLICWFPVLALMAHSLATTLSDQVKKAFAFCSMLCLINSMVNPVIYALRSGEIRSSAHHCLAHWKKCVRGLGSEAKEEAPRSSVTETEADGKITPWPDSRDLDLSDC

In the case of `Cc1nc(C(C)(C)NC(=O)c2ccc(N3CC(F)(F)C3)c(OCC3CC3)n2)no1` [Example 102, 6-Cyclopropylmethoxy-5-(3,3-difluoro-azetidin-1-yl)-pyridine-2-carboxylic acid [1-methyl-1-(5-methyl-[1,2,4]oxadiazol-3-yl)-ethyl]-amide], the EC50 (as a rule, the concentration that produces a half-maximal response) in test [1] was over 10000 nM; in test [2], 62.7 nM.

Take `NC(=O)[C@H](CC1CC1)NC(=O)c1ccc(N2CC(F)(F)C2)c(OCC2CC2)n1` [Example 103, 6-Cyclopropylmethoxy-5-(3,3-difluoro-azetidin-1-yl)-pyridine-2-carboxylic acid ((S)-1-carbamoyl-2-cyclopropyl-ethyl)-amide]: the EC50 was over 10000 nM in test [1] and 7 nM in test [2].

As for `CC(C)(NC(=O)c1ccc(Cl)c(-c2cccc(Cl)c2)n1)c1ncco1` [Example 104, 5-Chloro-6-(3-chloro-phenyl)-pyridine-2-carboxylic acid (1-methyl-1-oxazol-2-yl-ethyl)-amide], the EC50 in test [1] is over 10000 nM; in test [2] it was 517 nM.

For the compound `CC(C)C[C@H](NC(=O)c1ccc(Cl)c(-c2cccc(Cl)c2)n1)C(N)=O` [Example 105, 5-Chloro-6-(3-chloro-phenyl)-pyridine-2-carboxylic acid ((S)-1-carbamoyl-3-methyl-butyl)-amide], the values for the EC50 in test [1] and in test [2] were over 10000 nM and 208 nM, respectively.

On to `Cc1nc(C(C)(C)NC(=O)c2ccc(C3CCCC3)c(-c3cccc(Cl)c3)n2)no1` [Example 106, 6-(3-Chloro-phenyl)-5-cyclopentyl-pyridine-2-carboxylic acid [1-methyl-1-(5-methyl-[1,2,4]oxadiazol-3-yl)-ethyl]-amide], for which the EC50 in test [1] is over 10000 nM; in test [2], 215 nM.

`NC(=O)[C@H](CC1CC1)NC(=O)c1ccc(C2CCCC2)c(OCC2CC2)n1` [Example 107, 5-Cyclopentyl-6-cyclopropylmethoxy-pyridine-2-carboxylic acid ((S)-1-carbamoyl-2-cyclopropyl-ethyl)-amide]: the EC50 in test [1] is 1460 nM; in test [2], 10.7 nM.

For the compound `Cc1nc(C(C)(C)NC(=O)c2ccc(Cl)c(OCC3CC3)n2)no1` [Example 108, 5-Chloro-6-cyclopropylmethoxy-pyridine-2-carboxylic acid [1-methyl-1-(5-methyl-[1,2,4]oxadiazol-3-yl)-ethyl]-amide], the EC50 was over 10000 nM in test [1] and 190 nM in test [2].

For `CCC(CC)(NC(=O)c1ccc(Cl)c(OCC2CC2)n1)C(=O)NC` [Example 109, 5-Chloro-6-cyclopropylmethoxy-pyridine-2-carboxylic acid (1-ethyl-1-methylcarbamoyl-propyl)-amide], the EC50 in test [1] was over 10000 nM; in test [2], 178 nM.

As for `NC(=O)[C@H](CC1CC1)NC(=O)c1ccc(Br)c(OCC2CC2)n1` [Example 110, 5-Bromo-6-cyclopropylmethoxy-pyridine-2-carboxylic acid ((S)-1-carbamoyl-2-cyclopropyl-ethyl)-amide], the EC50 was over 10000 nM in test [1] and 224 nM in test [2].

With `CCC(CC)(NC(=O)c1ccc(C2CCCC2)c(OCC2CC2)n1)C(=O)NC` [Example 111, 5-Cyclopentyl-6-cyclopropylmethoxy-pyridine-2-carboxylic acid (1-ethyl-1-methylcarbamoyl-propyl)-amide], the values for the EC50 in test [1] and in test [2] were over 10000 nM and 6.9 nM, respectively.

For `NC(=O)[C@H](CC1CC1)NC(=O)c1ccc(N2CCC(F)(F)C2)c(OCC2CC2)n1` [Example 112, 6-Cyclopropylmethoxy-5-(3,3-difluoro-pyrrolidin-1-yl)-pyridine-2-carboxylic acid ((S)-1-carbamoyl-2-cyclopropyl-ethyl)-amide], the EC50 is over 10000 nM in test [1] and 15.4 nM in test [2].

Turning to `NC(=O)[C@H](CC1CC1)NC(=O)c1ccc(C(F)(F)F)c(OCC2CC2)n1` [Example 113, 6-Cyclopropylmethoxy-5-trifluoromethyl-pyridine-2-carboxylic acid ((S)-1-carbamoyl-2-cyclopropyl-ethyl)-amide], the EC50 was over 10000 nM in test [1] and 200 nM in test [2].
